For twelve compounds, GI50 and TGI results are on record in PubChem BioAssay (NCI).

Some test systems named below: RXF 393 renal; SF-295 CNS; UO-31 renal; SN12C renal; HL-60(TB) leukemia; OVCAR-3 ovarian; NCI/ADR-RES ovarian; SK-MEL-2 melanoma; UACC-257 melanoma; MDA-MB-435.
Assay in all cases: growth of human tumour cells (NCI), 48 h

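Assay format: 96-well plates, 48-hour exposure. GI50 = concentration required for 50% inhibition of growth. The concentration for full growth arrest is given as TGI.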

In the case of `Cc1c(C(=O)N/N=C/c2ccc(Cl)cc2)nnn1-c1ccnc2c(C(F)(F)F)cccc12`, the GI50 in the assay with RXF 393 renal was 3.06 µM; with SF-295 CNS, 1.82 µM; with UO-31 renal, 13 µM; in the assay with SN12C renal, 3.51 µM; with HL-60(TB) leukemia it was 6.39 µM; with OVCAR-3 ovarian it was 12 µM. Further, the GI50 was 3.86 µM in the assay on NCI/ADR-RES ovarian, 18.1 µM with SK-MEL-2 melanoma, 2.89 µM with UACC-257 melanoma and 4.46 µM in the assay on MDA-MB-435. For the same compound, the TGI in the assay on RXF 393 renal turned out to be 11.2 µM; in the assay on SF-295 CNS, 4.01 µM; in the assay with UO-31 renal, 27.8 µM; with SN12C renal, 15.5 µM; with HL-60(TB) leukemia, 48 µM; with OVCAR-3 ovarian, 26.4 µM. Further, the TGI in the assay with NCI/ADR-RES ovarian was found to be 13.8 µM; in the assay with SK-MEL-2 melanoma, 54.9 µM; in the assay on UACC-257 melanoma it was 6.91 µM; in the assay with MDA-MB-435, 21.3 µM.

With `O=C(NCCOCCOCCNc1cccc2c1C(=O)N(C1CCCNC1=O)C2=O)c1cc2c(o1)C(=O)c1ccccc1C2=O` (stereo not given), the GI50 in the assay on RXF 393 renal is 1.8 µM; in the assay with SF-295 CNS, 1.7 µM; in the assay with UO-31 renal it was 2.03 µM; in the assay on SN12C renal, 1.52 µM; in the assay with HL-60(TB) leukemia it was 2.38 µM; with OVCAR-3 ovarian, 0.682 µM. Also, the GI50 in the assay on NCI/ADR-RES ovarian is 10.3 µM; in the assay on SK-MEL-2 melanoma it was 2.11 µM; in the assay with UACC-257 melanoma it was 1.45 µM; in the assay with MDA-MB-435 it was 1.62 µM. Besides, the TGI in the assay on RXF 393 renal worked out at 3.99 µM; in the assay on SF-295 CNS, 3.13 µM; in the assay with UO-31 renal, 4.9 µM; with SN12C renal, 2.96 µM; in the assay with HL-60(TB) leukemia it was 6.78 µM; in the assay with OVCAR-3 ovarian, 2.69 µM. In addition, the TGI with NCI/ADR-RES ovarian stood at 32 µM; in the assay on SK-MEL-2 melanoma, 6.1 µM; with UACC-257 melanoma, 2.89 µM; in the assay on MDA-MB-435, 3.05 µM.

`CCNCCNc1cc(-c2ccc(C(=O)OC)cc2)c(C#N)c2nc3ccccc3n12`: the GI50 is 1.42 µM with RXF 393 renal; 1.57 µM in the assay on SF-295 CNS; 1.53 µM in the assay with UO-31 renal; 2.68 µM in the assay with SN12C renal; 1.11 µM in the assay with HL-60(TB) leukemia; 1.35 µM in the assay on OVCAR-3 ovarian. The GI50 in the assay with NCI/ADR-RES ovarian is 2.8 µM; in the assay with SK-MEL-2 melanoma, 5.15 µM; in the assay on UACC-257 melanoma, 1.87 µM; in the assay with MDA-MB-435, 1.71 µM. The TGI in the assay on RXF 393 renal stood at 2.85 µM; in the assay with SF-295 CNS it was 3.12 µM; in the assay with UO-31 renal, 2.95 µM; in the assay with SN12C renal it was 8.33 µM; with HL-60(TB) leukemia, 2.93 µM; in the assay on OVCAR-3 ovarian, 2.88 µM. Also, the TGI was more than 100 µM in the assay on NCI/ADR-RES ovarian, 31.5 µM with SK-MEL-2 melanoma, 3.71 µM in the assay with UACC-257 melanoma and 3.47 µM in the assay with MDA-MB-435.

With `O=C(Nc1ccc(N2CCNCC2)cc1)c1[nH]ncc1Nc1cc(Oc2ccccc2)ncn1`, the GI50 in the assay on RXF 393 renal is 1.75 µM; in the assay on SF-295 CNS, 1.7 µM; in the assay with UO-31 renal it was 1.7 µM; with SN12C renal, 3.19 µM; with HL-60(TB) leukemia it was 1.91 µM; with OVCAR-3 ovarian, 2.18 µM. Also, the GI50 in the assay on NCI/ADR-RES ovarian was 12 µM; in the assay with SK-MEL-2 melanoma it was 3.82 µM; in the assay on UACC-257 melanoma, 2.86 µM; with MDA-MB-435, 1.68 µM. The TGI was 3.33 µM in the assay on RXF 393 renal; 3.27 µM in the assay with SF-295 CNS; 3.36 µM in the assay on UO-31 renal; 9.31 µM in the assay with SN12C renal; 4.54 µM in the assay on HL-60(TB) leukemia; 6.26 µM in the assay on OVCAR-3 ovarian. For the same compound, the TGI in the assay on NCI/ADR-RES ovarian was 39.2 µM; with SK-MEL-2 melanoma, 15.3 µM; with UACC-257 melanoma, 8.69 µM; in the assay with MDA-MB-435 it was 4.66 µM.

For the compound `Cc1cc(I)cc(CNCCCN2CCSCC2)c1O`, the GI50 with RXF 393 renal is 11.1 µM; in the assay with SF-295 CNS it was 11.8 µM; in the assay on UO-31 renal, 14.3 µM; with SN12C renal, 41.4 µM; with HL-60(TB) leukemia, 15.8 µM; with OVCAR-3 ovarian it was 14.1 µM. Besides, the GI50 was 18.1 µM in the assay with NCI/ADR-RES ovarian, 18.6 µM in the assay on SK-MEL-2 melanoma, 16.6 µM in the assay with UACC-257 melanoma and 13.6 µM with MDA-MB-435. Further, the TGI with RXF 393 renal is 24.1 µM; with SF-295 CNS, 24.6 µM; in the assay with UO-31 renal, 41.8 µM; in the assay on SN12C renal, more than 100 µM; in the assay with HL-60(TB) leukemia, 35.8 µM; in the assay on OVCAR-3 ovarian, 27.7 µM. Moreover, the TGI in the assay with NCI/ADR-RES ovarian came to 36.6 µM; in the assay with SK-MEL-2 melanoma it was 35.4 µM; in the assay with UACC-257 melanoma, 34.1 µM; in the assay with MDA-MB-435, 26.6 µM.

Consider `O=C1NNC=Nc2ccc(cc2)S(=O)(=O)c2ccc(cc2)N=CNNC1=O`, for which the TGI in the assay on RXF 393 renal, with SF-295 CNS, with UO-31 renal, with SN12C renal, with HL-60(TB) leukemia and in the assay with OVCAR-3 ovarian was more than 100 µM each time. In addition, the TGI in the assay on NCI/ADR-RES ovarian, in the assay with SK-MEL-2 melanoma, with UACC-257 melanoma and in the assay with MDA-MB-435 was more than 100 µM each time.

Take `O=NN(Cc1ccc(Cl)cc1)C(C(=O)O)c1ccccc1` (stereo not given): the TGI with RXF 393 renal, in the assay on SF-295 CNS, in the assay with UO-31 renal, with SN12C renal, in the assay with HL-60(TB) leukemia and with OVCAR-3 ovarian was more than 100 µM throughout. In addition, the TGI in the assay on NCI/ADR-RES ovarian, with SK-MEL-2 melanoma, with UACC-257 melanoma and in the assay with MDA-MB-435 was more than 100 µM each time.

For the compound `COc1ccc(C2=NN(C(=O)c3cc(OC)c(OC)c(OC)c3)C(c3ccc(C#N)cc3)C2)cc1OC` (stereo not given), the GI50 is 0.541 µM with RXF 393 renal; 0.351 µM in the assay with SF-295 CNS; 0.439 µM with UO-31 renal; 4.47 µM in the assay with SN12C renal; 1.85 µM in the assay on HL-60(TB) leukemia; 0.478 µM with OVCAR-3 ovarian. The GI50 was 0.603 µM in the assay on NCI/ADR-RES ovarian, 1.58 µM in the assay on SK-MEL-2 melanoma, 6.4 µM in the assay with UACC-257 melanoma and 0.334 µM with MDA-MB-435. The TGI in the assay on RXF 393 renal was 4.69 µM; with SF-295 CNS, 2.37 µM; with UO-31 renal, 17.4 µM; with SN12C renal, more than 100 µM; with HL-60(TB) leukemia, 6.01 µM; in the assay with OVCAR-3 ovarian, 2.35 µM. The TGI is 11.1 µM in the assay on NCI/ADR-RES ovarian, more than 20.3 µM with SK-MEL-2 melanoma, more than 53.2 µM in the assay on UACC-257 melanoma and 1.24 µM in the assay with MDA-MB-435.

Turning to `O=C(O)CCCCC(CCSCc1ccccc1)SCc1ccccc1` (stereo not given), the GI50 was 27.3 µM in the assay with RXF 393 renal; 25.8 µM in the assay on SF-295 CNS; 30.9 µM in the assay on UO-31 renal; 41.4 µM with SN12C renal; 46.9 µM with HL-60(TB) leukemia; 37.9 µM with OVCAR-3 ovarian. Further, the GI50 in the assay with NCI/ADR-RES ovarian is 48.6 µM; in the assay with SK-MEL-2 melanoma, 27.5 µM; in the assay with UACC-257 melanoma, more than 67.1 µM; with MDA-MB-435, more than 73.7 µM. For the same compound, the TGI in the assay on RXF 393 renal is more than 100 µM; in the assay with SF-295 CNS it was more than 74.5 µM; with UO-31 renal it was more than 100 µM; in the assay on SN12C renal, more than 100 µM; in the assay on HL-60(TB) leukemia, more than 100 µM; in the assay on OVCAR-3 ovarian, more than 69.9 µM. Further, the TGI is more than 100 µM with NCI/ADR-RES ovarian, 67.6 µM in the assay with SK-MEL-2 melanoma, more than 100 µM in the assay on UACC-257 melanoma and more than 100 µM in the assay on MDA-MB-435.

For `CC1CCC2(C(=O)O)CCC3(C)C(=CCC4C5(C)CC(O)C(O)C(C)(CO)C5C(O)CC43C)C2C1C` (stereo not given), the TGI is more than 64.1 µM with RXF 393 renal; more than 100 µM in the assay on SF-295 CNS; more than 100 µM with UO-31 renal; 25.8 µM in the assay on SN12C renal; 47.1 µM in the assay with HL-60(TB) leukemia; 50.8 µM in the assay on OVCAR-3 ovarian. In addition, the TGI is more than 100 µM with NCI/ADR-RES ovarian, 36.6 µM in the assay with SK-MEL-2 melanoma, more than 100 µM with UACC-257 melanoma and more than 100 µM with MDA-MB-435.

In the case of `Cc1ccc(-c2c3c([nH]c(=O)c2C#N)-c2cc(F)ccc2OC3)cc1`, the GI50 is more than 100 µM with RXF 393 renal; 23.9 µM with SF-295 CNS; 41.3 µM in the assay with UO-31 renal; more than 100 µM with SN12C renal; 96.6 µM in the assay on HL-60(TB) leukemia; 25.4 µM with OVCAR-3 ovarian. Further, the GI50 was more than 100 µM with NCI/ADR-RES ovarian, 55.4 µM in the assay on SK-MEL-2 melanoma, more than 100 µM with UACC-257 melanoma and 35.8 µM in the assay with MDA-MB-435. Also, the TGI in the assay with RXF 393 renal was more than 100 µM; in the assay with SF-295 CNS it was 76.6 µM; in the assay on UO-31 renal, more than 100 µM; in the assay on SN12C renal it was more than 100 µM; in the assay with HL-60(TB) leukemia, more than 100 µM; with OVCAR-3 ovarian, 81.9 µM. Further, the TGI is more than 100 µM with NCI/ADR-RES ovarian, 98.4 µM in the assay with SK-MEL-2 melanoma, more than 100 µM in the assay on UACC-257 melanoma and more than 100 µM in the assay on MDA-MB-435.

As for `O=C1c2cccc(NCCN=Cc3cc(O)ccc3O)c2C(=O)c2c(NCCN=Cc3cc(O)ccc3O)cccc21`, the GI50 in the assay with RXF 393 renal was 1.43 µM; with SF-295 CNS it was 1.36 µM; in the assay on UO-31 renal it was 1.71 µM; with SN12C renal, 0.737 µM; in the assay on HL-60(TB) leukemia it was 1.63 µM; in the assay on OVCAR-3 ovarian, 1.63 µM. Besides, the GI50 was 13.4 µM in the assay with NCI/ADR-RES ovarian, 2.02 µM in the assay on SK-MEL-2 melanoma, 3.1 µM with UACC-257 melanoma and 1.53 µM in the assay on MDA-MB-435. In addition, the TGI came to 2.96 µM with RXF 393 renal; 4.24 µM in the assay with SF-295 CNS; 6.13 µM with UO-31 renal; 3.9 µM in the assay with SN12C renal; 4.19 µM in the assay with HL-60(TB) leukemia; 4.28 µM in the assay with OVCAR-3 ovarian. The TGI was determined as 35.9 µM with NCI/ADR-RES ovarian, 3.91 µM with SK-MEL-2 melanoma, 10.8 µM in the assay on UACC-257 melanoma and 3.08 µM in the assay on MDA-MB-435.
